PMC6027051, “Polymer–Surfactant System Based Amorphous Solid Dispersion: Precipitation Inhibition and Bioavailability Enhancement of Itraconazole” (Pharmaceutics, 2018)
In brackets after ≈: the same amount, converted by molar mass. Where two headings read alike, the source gives them in different places.

Legend:
Format in all cases: physicochemical
[1] = Equilibrium solubility of ITZ in SIF with or without surfactant (shaking flask method); conditions: for solubility thermodynamic at 48 h: 37 °C, n = 3, read-out: ITZ Concentration in SIF (equilibrium solubility)
Description: An excess amount of ITZ was added to SIF with or without pre-dissolved surfactant (1 mg/mL) and mixed by vortex for 2 min. After incubation in a shaking incubator at 37 °C for 48 h, the suspension was centrifuged (15,000 rpm for 10 min) and filtered through a 0.22 μm Millipore filter (Jinteng Experimental Equipment Co., Ltd, Tianjin, China). Prior to assay by high performance liquid (HPLC) (Shimadzu Corporation, Kyoto, Japan) using a PhenomenexC18 column (4.6 × 250 mm, 5 μm), the filtrate was diluted 1:1 with mobile phase. The mobile phase was consisted of 0.5% diisopropylamine in methanol and 0.1% ammonium acetate in distilled water (80:20) with a rate of 1.0 mL/min. The effluent was monitored at an ultraviolet-visible (UV) absorption wavelength of 263 nm. The retention time of ITZ under these conditions was 4.9 min. Calibration curve (Figure 1A) were linear over a concentration range of 0.04–40 μg/mL. The limit of quantitation (LOQ) and limit of detection (LOD) was 25 ng and 10 ng, respectively. Each equilibrium solubility test was performed in triplicate.

[2] = Supersaturation dissolution test with pH-shift (SGF to SIF, USP paddle method)
Description: In order to simulate the drug peristalsis in vivo situation, a transfer of simulated gastric fluid (SGF) to SIF was conducted for in vitro dissolution experiment. Supersaturation dissolution tests were performed according to USP 29 Apparatus 2 guidelines (paddle method) with a ZRS-8G dissolution tester (TDTF, Tianjin, China). Briefly, samples containing equivalent amounts of ITZ (45 mg) were subjected to each dissolution vessel containing SGF (750 mL of 0.1 N HCl) for 2 h, followed by pH adjustment to 6.8 by the addition of 250 mL of 0.2 M tribasic sodium phosphate (Na3PO4) for additional 3 h. The dissolution media was kept at 37.0 ± 0.5 °C and the paddle speed was maintained at 100 rpm throughout the test procedure. Aliquot samples (5 mL) were withdrawn at predetermined time intervals (120, 125, 150, 180, 240, and 300 min). The samples were filtered through a […] millipore filter and the first few drops were discarded. The filtrate was immediately diluted with methanol to prevent the precipitation. The ITZ concentration was assayed by ultraviolet spectrophotometry (TU-1901, Beijing Purkinje General Instrument Co., Ltd., Beijing, China) at a wavelength of 263 nm. The calibration curve of ITZ in UV spectrophotometry was shown in Figure 1B with a concentration range of 0.25–80 μg/mL. […]

[3] = Nucleation induction time measurement (turbidity at 490 nm, plate reader) in SIF; conditions: supersaturated ITZ solution by solvent shift (DMSO stock into SIF), absorbance 490 nm
Description: Supersaturation stability is commonly evaluated by measuring the induction time for nucleation, which is defined as the time lag for the appearance of the observable crystals. In this study, the precipitation induction time of different formulations were obtained by determining the changes in turbidity using plate reader detection technique. Supersaturated ITZ solutions were prepared by the solvent shift method. All the samples were dissolved in dimethyl sulfoxide (DMSO) to obtain ITZ stock solution at a concentration of 1mg/mL, then the stock solution was added into SIF and stirred constantly to generate a supersaturated solution. Immediately, 300 μL of individual supersaturated solution was transferred into a 96-well polypropylene plate and the optical density value of each well was measured at 490 nm using plate reader (Bio-Tek, Winooski, VT, USA). […] Thus, the turbidity was the only contributor to the changed absorbance. The samples were also shaken before the measurement and each formulation was detected in triplicate. All the analyses and calculations were carried out using Gen 5.0 (Bio-Tek, Winooski, VT, USA).

SMILES: CCC(C)n1ncn(-c2ccc(N3CCN(c4ccc(OCC5COC(Cn6cncn6)(c6ccc(Cl)cc6Cl)O5)cc4)CC3)cc2)c1=O (centres unmarked) [ITZ, Itraconazole]
- solubility thermodynamic at 48 h ([1]; SIF with Poloxamer 188 1 mg/mL, pH 6.8, SIF pH 6.8 with Poloxamer 188 1 mg/mL): 0.92 ± 0.27 µg/mL (≈ 1.3 µM)
- solubility thermodynamic at 48 h ([1]; SIF with SDS 1 mg/mL, pH 6.8, SIF pH 6.8 with SDS 1 mg/mL): 1.66 ± 0.53 µg/mL (≈ 2.35 µM)
- solubility thermodynamic at 48 h ([1]; SIF with Soluplus 1 mg/mL, pH 6.8, SIF pH 6.8 with Soluplus 1 mg/mL): 0.1 ± 0.06 µg/mL (≈ 0.142 µM)
- solubility thermodynamic at 48 h ([1]; SIF with TPGS 1 mg/mL, pH 6.8, SIF pH 6.8 with TPGS 1 mg/mL): 4.83 ± 0.81 µg/mL (≈ 6.84 µM)
- Increase of equilibrium solubility in the presence of TPGS over SIF ([1]; SIF with TPGS vs SIF alone): approximately 580 fold
- solubility thermodynamic at 48 h ([1]; SIF with Tween 80 1 mg/mL, pH 6.8, aqueous with cosolvent or surfactant or cyclodextrin, thermodynamic from solid, SIF pH 6.8 with Tween 80 1 mg/mL): 0.03 ± 0.01 µg/mL (≈ 0.0425 µM)
- solubility thermodynamic at 48 h ([1]; SIF with sodium cholate 1 mg/mL, pH 6.8, aqueous with cosolvent or surfactant or cyclodextrin, thermodynamic from solid, SIF pH 6.8 with Sodium cholate 1 mg/mL): 0.07 ± 0.02 µg/mL (≈ 0.0992 µM)
- solubility thermodynamic at 48 h ([1]; simulated intestinal fluid (SIF) without surfactant, pH 6.8, fassgf or other biorelevant, thermodynamic from solid, SIF pH 6.8 without surfactant (Blank group)): ~0.008 µg/mL (≈ 0.0113 µM)
- ITZ released after 2 h in SGF ([2]; SGF (0.1 N HCl), 120 min, 37 °C, 45 mg ITZ): 3%
- Cumulative release amount after pH change to 6.8 (rapid precipitation, eventually dropped to) ([2]; SIF pH 6.8, precipitation from five minutes after the pH change): < 1%
- Turbidity / precipitation behaviour in the absorbance-time curve [3]: rapid increase in the absorbance followed by a gradual decline
